Measurements taken from patent US20060009520A1, “Retinoid-based methods for altering macrophage cholesterol” (priority 2004, published 2006).

Assays:
RARα protein = assay: Western blot of nuclear RARα in RARγ-deficient macrophages; type: cell-based, mouse; settings: TTNPB treatment
Experimental: Nuclear protein extracts from tissues and macrophages were isolated according to the following method. Tissue samples and cells were first homogenized on ice and then lysed in lysis buffer (10 mM Tris [pH 7.5], 3 mM MgCl2, 10 mM NaCl, 0.5% NP-40) containing protease inhibitor cocktail. The nucleus was then pelleted by centrifugation for 10 min at 6,000× g, immediately resuspended in a nucleus suspension buffer (250 mM Tris [pH 8.0], 60 mM KCl, I mM dithiothrietol), and then rotated for 1 h. After centrifugation for 5 min at 6000× g, the solubilized nuclear proteins were separated by electrophoresis with a 4 to 15% gradient gel (Bio-Rad), transferred to nitrocellulose membrane (Trans-Blot transfer medium; Bio-Rad), and probed with anti-RARγ and anti-RARα antibodies (Santa Cruz Biotechnology, Santa Cruz, Calif.) and their respective horseradish peroxidase-conjugated secondary antibodies according to the manufacturer's recommendations. The intensities of the bands were quantified by using ImageQuant and normalized to (β-actin.

[1] = Plasma and hepatic lipid analysis; type: in vivo, mouse; settings: mice; for Hepatic lipid Cholesterol / Hepatic lipid Triglycerides / Plasma lipid Cholesterol / Plasma lipid Triglycerides: 24 h
Experimental: Mice were fasted for 3 h before blood collection. Plasma was separated by centrifugation and kept at −80° C. until lipid analysis. Liver tissue samples (50 to 75 mg) were homogenized in PBS. Lipids were then extracted with chloroform-methanol (2/1 [vol/vol]) and redissolved in isopropanol. Triglyceride and cholesterol were measured in plasma and in the liver lipid extracts by using commercial kits (Wako Chemicals, Neusse Germany).

ABCA1 protein [2] = assay: Western blot of ABCA1 protein in mouse peritoneal macrophages; type: cell-based; settings: 24 h
Experimental: (§1) Protein extracts from macrophages were prepared by lysing the cells in modified radioimmunoprecipitation assay buffer (50 mM Tris, 150 mM NaCl, 1 mM EDTA. 1% Triton X-100) containing a protease inhibitor cocktail (Complete EDTA Free; Roche). Protein content in the extracts was determined by using the DC protein assay (Bio-Rad, Hercules, Calif.). Equal amounts of protein (40 to 50 μg) were separated by electrophoresis with 4 to 15% acrylamide gradient gels (Bio-Rad) and then transferred to nitrocellulose membrane (Trans-Blot Transfer Medium; Bio-Rad). Membranes were probed with anti-ABCA1 antibody (Novus Biologicals, Littleton, Colo.) and anti-β-actin antibody (Sigma) according to the manufacturer's recommendations. Immunoblots were developed by using a chemiluminescent detection system (Super Signal West Pico chemiluminescent substrate; Pierce, Rockford, Ill.).

[3] = tested on: ABCA1, ABCG1, SREBP-1c, apoE, LXRα, Cyp26 mRNA; assay: Quantitative real-time PCR of LXR target genes and Cyp26 in human monocyte-derived macrophages; type: cell-based; settings: human macrophages
Experimental: For quantification of mouse Cyp26 mRNA levels, each amplification mixture (25 μ) contained 62.5 ng of cDNA, 100 nM concentrations of reverse and forward primers, and 2.5 μl of 10× SYBR Green PCR master mix (Perkin-Elmer Life Sciences, Boston, Mass.). Quantitative expression values were extrapolated from standard curves for Cyp26 expression with 10-fold dilutions of cDNA (in triplicate). Each sample was normalized to β-actin that was deduced from TaqMan assays, triplicate results were averaged, and relative Cyp26 mRNA levels were determined. The primers mCyp26 F (5′-[…]-3′) and mCyp26 R (5′-[…]-3′) were used. RNA measurements from human monocyte-derived macrophages were performed as described previously (10, 44).

FXR = target: T1, FXR (Mus musculus, UniProt Q60641); settings: cited from earlier work
T1 sequence (Q60641 1-488): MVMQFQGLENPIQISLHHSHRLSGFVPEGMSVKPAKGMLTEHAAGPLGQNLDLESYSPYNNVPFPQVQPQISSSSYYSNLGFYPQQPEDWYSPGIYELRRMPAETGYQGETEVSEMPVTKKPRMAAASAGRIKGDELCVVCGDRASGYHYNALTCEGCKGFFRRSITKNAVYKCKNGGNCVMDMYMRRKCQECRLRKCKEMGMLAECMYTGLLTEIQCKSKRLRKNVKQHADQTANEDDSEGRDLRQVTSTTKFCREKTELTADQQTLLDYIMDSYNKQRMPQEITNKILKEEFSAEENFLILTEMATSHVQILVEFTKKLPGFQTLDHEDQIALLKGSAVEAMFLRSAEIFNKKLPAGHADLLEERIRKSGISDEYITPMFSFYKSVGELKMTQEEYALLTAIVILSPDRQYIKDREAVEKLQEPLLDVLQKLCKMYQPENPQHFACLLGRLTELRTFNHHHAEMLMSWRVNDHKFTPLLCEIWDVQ

ABCA1 protein [4] = assay: Western blot of ABCA1 protein in RARγ−/− mouse peritoneal macrophages; type: cell-based; settings: 5 μM, 24 h
Experimental: as §1

Compound: C/C(=C\c1ccc(C(=O)O)cc1)c1ccc2c(c1)C(C)(C)CCC2(C)C [TTNPB, 4-[E-2-5,6.7.8-tetrahydro-5,5,8,8-tetramethyl-2-naphthalenyl-l-propenyl]benzoic acid]
- decrease of nuclear RARα (RARα protein): ~2 fold
- Hepatic lipid Cholesterol ([1]; 1 mg/kg intraperitoneally): 1.43 ± 0.07 μg/mg of tissue
- Hepatic lipid Triglycerides ([1]; 1 mg/kg intraperitoneally): 11.57 ± 4.05 μg/mg of tissue
- Plasma lipid Cholesterol ([1]; 1 mg/kg intraperitoneally): 64.1 ± 8.0 mg/dL
- Plasma lipid Triglycerides ([1]; 1 mg/kg intraperitoneally): 35.1 ± 4.0 mg/dL
- Hepatic lipid Cholesterol ([1]; 10 mg/kg intraperitoneally): 1.31 ± 0.20 μg/mg of tissue
- Hepatic lipid Triglycerides ([1]; 10 mg/kg intraperitoneally): 9.25 ± 1.98 μg/mg of tissue
- Plasma lipid Cholesterol ([1]; 10 mg/kg intraperitoneally): 58.0 ± 4.9 mg/dL
- Plasma lipid Triglycerides ([1]; 10 mg/kg intraperitoneally): 33.1 ± 3.1 mg/dL
- effect on hepatic triglyceride content ([1]; intraperitoneal): did not result in an increase
- effect on triglyceride levels in plasma ([1]; intraperitoneal, higher doses): significant reduction
- ABCA1 protein levels (ABCA1 protein [2]): accumulation of ABCA1 protein
- Cyp26 mRNA increase [3]: ~6 fold
- induction of ABCA1 or other LXR target genes, compared with ATRA [3]: much less effective than ATRA
- FXR activation (FXR): activates FXR at relatively high concentrations
- ABCA1 protein induction (ABCA1 protein [4]): still induced
